Results on two compounds are retold here after patent publication US20030013078A1, “HIV-1 reporter viruses and their use in assaying anti-viral compounds” (priority 2000, published 2003).

Common to all, as to assay type: cell-based, HIV-1
One assay relates to NL4Rluc. The assay is described as follows: Inhibition of NL4Rluc reporter virus replication in MT-2 #18 cells (renilla luciferase activity). As to conditions: Human immunodeficiency virus 1, read-out: EC50, inhibition of viral replication. On the procedure: (§1) MT-2 #18 cells were pelleted and infected with virus stocks at a multiplicity of infection (MOI) of 0.01 at 37° C. for 2hrs. Viruses were removed and cells were washed twice with 1×PBS before re-suspending in a final concentration of 10,000 cells/100 uL. Infectivity and drug sensitivity assays were carried out in 96 well tissue culture plates, and kinetic studies were carried out in T-25 flasks. Cell supernatants were harvested on day 0, 2, 3, 5 or 6, and passaged virus was harvested on day 2 or 3. The activity for the capsid protein p24 was analyzed according to manufacturer's protocol utilizing the Zeptometrix Retrotek product (Zeptometrix Incorporated, Buffalo, N.Y.).
(§2) Large volume cultures of MT-2 #18 cells were prepared and kept at a concentration of less than 0.5×10^6 cells per milliliter in RPMI media with 10% fetal calf serum. Test compounds were plated into a 96 well tissue culture treated clear bottom black plates (Corning Incorporated, Corning, N.Y.) at a concentration of 3 mM in 20 microliters of dionized water and 5% dimethyl sulfoxide. […]
(§3) Renilla luciferase activity was measured using the Promega Dual Luciferase Reporter kit (Promega Corp., Madison, Wis.). […] Following the substrate addition, plates were immediately sealed and read for 5 seconds per well in a Wallac Microbeta 1450 (Perkin-Elmer Wallac Incorporated, Gaithersburg, Md.) in the luminescence mode. […]

A further assay concerns JRFNSEAP
The assay is described as follows: Inhibition of JRFNSEAP reporter virus replication in MT-2 #18 cells (SEAP activity). The following applies: Human immunodeficiency virus 1, provirus JRFNSEAP (CCR5-tropic), MOI 0.01, read-out: EC50, inhibition of viral replication. On the procedure:
as §1, §2
Secreted placental alkaline phosphatase (SEAP) activity was measured using the a 1,2 dioxetane alkaline phosphatase substrate called CSPD (Tropix PE Applied Biosystems, Bedford, Mass.). […] Light emission can be measured utilizing a scintillation counter or a luminometer. […]

The subject of the next assay is JRFNRLuc. The assay is described as follows: Inhibition of JRFNRLuc reporter virus replication in MT-2 #18 cells (renilla luciferase activity). As to conditions: Human immunodeficiency virus 1, read-out: EC50, inhibition of viral replication. On the procedure: as §1, §2, §3
Another assay deals with JRFNFLuc. The assay is described as follows: Inhibition of JRFNFLuc reporter virus infection in MT-2 #18 cells (firefly luciferase activity). As to conditions: for pEC50: Human immunodeficiency virus 1, read-out: EC50, inhibition of viral replication. On the procedure:
as §1
Large volume cultures of MT-2 #18 cells were prepared and kept at a concentration of less than 0.5×10^6 cells per milliliter in RPMI media with 10% fetal calf serum. Test compounds were plated into a 96 well tissue culture treated clear bottom black plates (Corning Incorporated, Corning, N.Y.) at a concentration of 3 mM in 20 microliters of dionized water and 5% dimethyl sulfoxide. MT-2 #18 cells were pelleted via low speed centrifugation and re-suspended in fresh media. Reporter viruses were added to the fresh media and cells to obtain the appropriate MOI of 0.01 and a cell concentration of 1×10^4 in 160 microliters. Twenty microliters per well of 2×complete modified eagle's media was then added to compensate for the dionized water volume. 180 microliters of this mixture is then added to each test compound well and control wells. Following a 5 to 6 day incubation at 37° C., media was aspirated from the wells utilizing a 12-channel manifold.
The replication ability of the NL4Rluc and JRFNRLuc viruses were then compared to that of the JRFNFLuc virus. JRFNFLuc differs from JRFNRLuc in that it encodes the firefly luciferase gene instead of the renilla luciferase gene. JRFNFLuc was constructed in a fashion similar to that previously reported (Chen et al., 1994). Infection of T-cell lines by JRFNFLuc was carried out exactly as that was done for NL4Rluc and JRFNRLuc viruses. […] Upon passing the day 6 post infection JRFNFLuc supernatant onto uninfected MT-2 #18 cells, no firefly luciferase activity or p24 production could be detected up to seven days post inoculation (data not shown). […] The finding that this virus was not capable of inhibition by a late stage HIV-1 replication cycle inhibitor is further evidence of it not being able to replicate.

pEC50: −log10 of the molar value.

The term pEC50 denotes the negative decadic logarithm of the EC50, by convention in mol/L. For `CC(C)CN(C[C@@H](O)[C@H](Cc1ccccc1)NC(=O)O[C@H]1CCOC1)S(=O)(=O)c1ccc(N)cc1` [Amprenavir], the pEC50 in the assay on NL4Rluc is 7.71; in the assay on JRFNSEAP, 7.67; in the assay with JRFNRLuc, 8.16; with JRFNFLuc, under 5.00. The “Non-inhibiting concentration on JRFNFLuc relative to the EC50 on the replication competent JRFNRLuc” value in the assay on JRFNFLuc (10 uM versus JRFNRLuc) was “over 1000 fold”. In the assay on JRFNFLuc (at 10 uM), the “Inhibition of JRFNFLuc virus” value is recorded as “unable to inhibit”.

Regarding `O=C1Nc2ccc(Cl)cc2[C@@](C#CC2CC2)(C(F)(F)F)O1` [Efavirenz], the pEC50 was 9.44 in the assay on NL4Rluc, 10.00 with JRFNSEAP, 9.92 with JRFNRLuc and 9.74 in the assay on JRFNFLuc.
